The record followed here is patent publication US6979686B1, “Substituted pyrazoles as p38 kinase inhibitors” (Pharmacia Corporation, priority 2001, dated 2005).

Structures can show the parent of a compound that is named as a salt. Where two headings read alike, the source gives them in different places.

The test system of test [1] is collagen-induced arthritis, DBA/1 male mice. Kind of test: Collagen-induced arthritis in mice. It counts as in vivo, mouse. The conditions noted are these: oral gavage b.i.d., day 20 to day 56. The procedure:
Induction and Assessment of Collagen-induced Arthritis in Mice:
Arthritis was induced in mice according to the procedure set forth in J. M. Stuart, Collagen Autoimmune Arthritis, Annual Rev. Immunol. 2:199 (1984), which is incorporated herein by reference. Specifically, arthritis was induced in 8-12 week old DBA/1 male mice by injection of 50 μg of chick type II collagen (CII) (provided by Dr. Marie Griffiths, Univ. of Utah, Salt Lake City, Utah) in complete Freund's adjuvant (Sigma) on day 0 at the base of the tail. Injection volume was 100 μl. Animals were boosted on day 21 with 50 μg of CII in incomplete Freund's adjuvant (100 μl volume). Animals were evaluated several times each week for signs of arthritis. Any animal with paw redness or swelling was counted as arthritic. Scoring of arthritic paws was conducted in accordance with the procedure set forth in Wooley et al., Genetic Control of Type II Collagen Induced Arthritis in Mice: Factors Influencing Disease Suspectibility and Evidence for Multiple MHC Associated Gene Control., Trans. Proc., 15:180 (1983). Scoring of severity was carried out using a score of 1-3 for each paw (maximal score of 12/mouse). Animals displaying any redness or swelling of digits or the paw were scored as 1. Gross swelling of the whole paw or deformity was scored as 2. Ankylosis of joints was scored as 3. Animals were evaluated for 8 weeks. 8-10 animals per group were used.
Preparation and Administration of Compounds:
The compounds tested on mice having collagen-induced arthritis were prepared as a suspension in 0.5% methylcelluose (Sigma, St. Louis, Mo.), 0.025% Tween 20 (Sigma). The compound suspensions were administered by oral gavage in a volume of 0.1 ml b.i.d. Administration began on day 20 post collagen injection and continued daily until final evaluation on day 56. Scoring of arthritic paws was conducted as set forth above.

Test [2] has as its system TNF alpha, BALB/c mice injected with LPS. Kind of test: Mouse model of LPS-induced TNF alpha production. It is filed as in vivo. The conditions noted are these: Table 6; mouse LPS, head '8 h', dose 30, oral gavage. The method in brief:
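Female BALB/c mice aged 10–12 weeks received 100 ng LPS i.v. and were bled 1 h later, with serum TNF measured by ELISA. Compound was given by oral gavage in mg/kg at the stated hours before LPS. Values are % inhibition against vehicle-treated LPS mice.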

Test [3] addresses T1, human GST-p38 kinase alpha (Homo sapiens, UniProt Q16539).
T1 construct: made in house; host or cells: E. coli DH10B
Nature of the test: p38 kinase in vitro assay, second format, phosphorylation of EGFRP with 33P-ATP. It is filed as biochemical. How it is done: The ability of compounds to inhibit human p38 kinase alpha was evaluated using two in vitro assay methods. In the first method, activated human p38 kinase alpha phosphorylates a biotinylated substrate, PHAS-I (phosphorylated heat and acid stable protein-insulin inducible), in the presence of gamma ^32P-ATP (^32P-ATP). PHAS-I was biotinylated prior to the assay and provides a means of capturing the substrate which is phosphorylated during the assay. p38 Kinase was activated by MKK6. Compounds were tested in 10 fold serial dilutions over the range of 100 μM to 0.001 μM using 1% DMSO. Each concentration of inhibitor was tested in triplicate.
A second assay format was also employed that is based on p38 kinase alpha induced phosphorylation of EGFRP (epidermal growth factor receptor peptide, a 21 mer) in the presence of ^33P-ATP. Compounds were tested in 10 fold serial dilutions over the range of 100 μM to 0.001 μM in 10% DMSO. Each concentration of inhibitor was tested in triplicate. Compounds were evaluated in 50 μl reaction volumes in the presence of 25 mM Hepes pH 7.5, 10 mM magnesium acetate, 4% glycerol, 0.4% bovine serum albumin, 0.4 mM DTT, 50 μM unlabeled ATP, 25 μg EGFRP (200 μM), and 0.05 μCi gamma ^33P-ATP. Reactions were initiated by addition of 0.09 μg of activated, purified human GST-p38 kinase alpha. Activation was carried out using GST-MKK6 (5:1,p38:MKK6) for one hour at 30° C. in the presence of 50 μM ATP. Following incubation for 60 minutes at room temperature, the reaction was stopped by addition of 150 μl of AG 1X8 resin in 900 mM sodium formate buffer, pH 3.0 (1 volume resin to 2 volumes buffer). The mixture was mixed three times with pipetting and the resin was allowed to settle. A total of 50 μl of clarified solution head volume was transferred from the reaction wells to Microlite-2 plates. 150 μl of Microscint 40 was then added to each well of the Microlite plate, and the plate was sealed, mixed, and counted.

The mark [4] stands for this setting: Table 10, 10% DMSO, @ 1.0 hour, read-out: p38α Kinase Assay IC50.

T1 sequence (Q16539 whole entry): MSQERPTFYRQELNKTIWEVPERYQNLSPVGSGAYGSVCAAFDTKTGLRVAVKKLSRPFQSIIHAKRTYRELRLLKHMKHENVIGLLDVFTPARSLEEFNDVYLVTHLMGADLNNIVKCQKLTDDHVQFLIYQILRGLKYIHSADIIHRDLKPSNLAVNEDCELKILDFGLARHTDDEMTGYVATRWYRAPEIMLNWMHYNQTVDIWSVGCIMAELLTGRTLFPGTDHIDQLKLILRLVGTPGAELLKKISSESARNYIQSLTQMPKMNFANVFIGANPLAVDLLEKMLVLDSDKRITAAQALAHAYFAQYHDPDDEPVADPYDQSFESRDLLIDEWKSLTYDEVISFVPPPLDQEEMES

In the case of `Fc1ccc(-c2[nH]nc(N3CCNCC3)c2-c2ccncc2)cc1` [Example A-172, 1-[5-(4-fluorophenyl)-4-(4-pyridinyl)-1H-pyrazol-3-yl]piperazine trihydrochloride], the “% Inhibition of Arthritis” value in test [1] (100 mpk) is listed as 49.3 @ 100 mpk %. In the case of `Fc1ccc(-c2[nH]nc(C3CC3)c2-c2ccncc2)cc1` [Example A-189, 4-[3-cyclopropyl-5-(4-fluorophenyl)-1H-pyrazol-4-yl]pyridine], the “% Inhibition of Arthritis” value in test [1] (30 mpk) is 51.6 @ 30 mpk %. In the case of `OCCn1cc(-c2ccncc2)c(-c2ccc(F)cc2)n1` [Example A-210, 3-(4-fluorophenyl)-4-(4-pyridinyl)-1H-pyrazole-1-ethanol], the “mLPS 8 h percent inhibition” value in test [2] amounted to 85%. Also, the “% Inhibition of Arthritis” value in test [1] (15 mpk) was 58.5 @ 15 mpk %.

`Fc1ccc(-c2[nH]ncc2-c2ccnc(NCCn3ccnc3)c2)cc1` [Example A-268, 4-[3-(4-fluorophenyl)-1H-pyrazol-4-yl]-N-[2-(1H-imidazol-1-yl)ethyl]-2-pyridinamine]: the IC50 (in general, the concentration at which inhibition is half-maximal) in test [3] (Table 6, EGFRP assay procedure, read-out: p38^2 (p38α in vitro assay, EGFRP assay procedure) IC50) was below 10 nM.

Consider `O[C@H]1CC[C@H](Nc2cc(-c3c[nH]nc3-c3ccc(F)cc3)ccn2)CC1` [Example A-386, trans-4-[[4-[3-(4-fluorophenyl)-1H-pyrazol-4-yl]-2-pyridinyl]amino]cyclohexanol], for which the IC50 in test [3] (Table 9, 10% DMSO, read-out: p38α Kinase Assay IC50) was found to be 16 nM. For the compound `O=C(C(=C1SCS1)c1ccncc1)c1ccc(I)cc1` [Example A-401], the IC50 in test [3] (setting [4]) stood at 21200 nM. The same measure, in the same setting: under `COc1ccc(-c2n[nH]c(N3CCN(C)CC3)c2-c2ccncc2)cc1` [Example A-415, 1-(4-(4-methoxyphenyl)-4-(4-pyridinyl)-1H-pyrazol-3-yl]-4-methylpiperazine] stands 510 nM.
